Where “and” joins values, the source holds several entries; their conditions need not be identical. Equal entries are not always repeated. Entries after “also recorded” stand apart in the source; their conditions may differ.
Tests used:
[1] = tested on: TGF-β secretion, collagen synthesis, or cellular proliferation; conditions: any of the cellular assays tested to date, e.g. TGF-β secretion; cited from earlier work
[2] = tested on: adhesion formation after peritoneal surgery (sidewall injury); assay: Rabbit peritoneal sidewall adhesion model; format: in vivo; parameters: key to Adhesion Tenacity: 0: No adhesions; 1: mild, easily dissectible adhesions; 2: moderate adhesions; non-dissectible, does not tear organ; 3: dense adhesions; non-dissectible, tears when removed; conditions: for mean adhesion area percentage: placebo control 100±0; for Adhesion Area Percentage / Adhesion Tenacity: individual animals; for efficacy in reducing post-operative adhesions: summary of the examples
Procedure: Multiple studies to confirm the efficacy of Tranilast in the reduction or inhibition of adhesion formation after peritoneal surgery were performed using a sidewall adhesion model.
(§1) In the peritoneal sidewall model, rabbits were pre-anesthetized with 1.2 mg/kg acetylpromazine and anesthetized with a mixture of 55 mg/kg ketamine hydrochloride and 5 mg/kg xylazine intramuscularly. Following preparation for sterile surgery, a midline laparotomy was performed. A 3 cm×5 cm area of peritoneum and transversus abdominis muscle was removed on the right lateral abdominal wall. The cecum was exteriorized and digital pressure was exerted to create subserosal hemorrhages (trauma and loss of blood flow) over all cecal surfaces. The cecum was then returned to its normal anatomic position. Tranilast contained in a delivery vehicle as described below was placed in an Alzet® miniosmotic pump (Alza Corporation, Palo Alto, Calif.) to allow continuous release of the molecule through the postsurgical interval. The Alzet miniosmotic pump was placed in the subcutaneous space and a delivery tube connected the pump with the site of injury at the sidewall. Only the delivery vehicle was placed in the pump of control rabbits. The abdominal wall and skin were closed in a standardized manner.
After 21 days, the rabbits were sacrificed and the percentage of the area of the sidewall injury that was involved in adhesions was determined. In addition, the tenacity of the adhesion formed was scored using a system as follows:
With the sidewall model, an initial score to represent the overall extent of adhesions is given (0 to 3).
The percentage of a surface of the sidewall involved in adhesions to various organs are given in the tables below to quantify the overall adhesion score. A reduction in the area and the tenacity of the adhesions would be considered beneficial and efficacious.
The efficacy of Tranilast in inhibiting adhesion formation was evaluated using a single pump, filled with one of three dosage levels of mg of Tranilast per ml of delivery vehicle (0.625 mg/ml, 6.25 mg/ml or 62.5 mg/ml), or placebo control (70% Polyethylene glycol 400, 20% Tween 80, 10% N,N-dimethylacetamide (DMAC)). The drug was placed in an Alzet miniosmotic pump and delivered over 7 days at a rate of 10 microliter/hr. The animals were sacrificed after 21 days.
Following the procedure described in Example 1, Tranilast, at one of three dosage levels (0.625, 6.25 or 62.5 mg Tranilast/ml vehicle), and a placebo control (70% Polyethylene glycol 400, 20% Tween 80, 10% N,N-dimethylacetamide (DMAC)) was delivered over 7 days at a rate of 10 microliter/hr.
After 7 days, animals received anesthesia and a small incision was made in the skin after preparation for aseptic surgery. The pump was then replaced with a new pump and drug or placebo was delivered over a second period of 7 days at a rate of 10 microliter/hr.
After 7 more days, some of the animals received anesthesia and a second small incision was made in the skin after preparation for aseptic surgery. Again, the pump was replaced with another new pump and drug or placebo was delivered over a third period of 7 days at a rate of 10 microliter/hr.
All animals were sacrificed after 21 days.
Groups of animals received either oral dosing, or local delivery of Tranilast, or placebo control. In the animals that received local delivery, a single pump, filled with placebo (70% Polyethylene glycol 400, 20% Tween 80, 10% N,N-dimethylacetamide (DMAC)), or Tranilast (6.25 mg/ml), at 10 microliter/hour over 7 days starting with the day of surgery, was placed in the subcutaneous space. Certain animals received oral dosing (approximately 60 mg/kg). Oral dosing was either pre-operatively (once a day for the 5 days prior to surgery, with the last dose given 2 hours prior to surgery) or, in one group, pre- and post-operatively (from day 2 through day 21 post-surgery). For further clarification, the treatment groups are shown below.

[3] = Necropsy observations in the rabbit sidewall adhesion studies; format: in vivo; parameters: key to mild inflammation with granulomas (mark at adhesion tenacity): *: did have mild inflammation with the presence of granulomas; conditions: for mild inflammation with granulomas (mark at adhesion tenacity): individual animals, also seen in vehicle treated animals
Procedure: as §1
The animals whose adhesion tenacities are marked by (*) did have mild inflammation with the presence of granulomas. The variability in the results may be due to a localized inflammation in […]. As the response was present in the vehicle treated animals, the inflammatory response may be due to prolonged administration of this vehicle. Therefore, the efficacy results might have been underestimated in light of the possible presence of a prolonged inflammatory response.

[4] = Example 1, 0.625 mg/ml local via pump, 10 microliter/hr over 7 days, sacrifice after 21 days
[5] = Example 1, 6.25 mg/ml local via pump, 10 microliter/hr over 7 days, sacrifice after 21 days
[6] = Example 1, 62.5 mg/ml local via pump, 10 microliter/hr over 7 days, sacrifice after 21 days
[7] = Example 3, oral 60 mg/kg 5 days pre-operatively and 6.25 mg/ml topically (pump, 7 days), 60 mg/kg
[8] = Example 3, oral 60 mg/kg, 5 days pre-operatively and 21 days post-operatively, no pump
[9] = Example 2, 2 and 3 week local dosing
[10] = Example 3, oral and/or local dosing

COc1ccc(C=CC(=O)Nc2ccccc2C(=O)O)cc1OC [Tranilast, N-(3,4-dimethoxycinnamoyl) anthranilic acid]
IC50 values in cellular assays [1]: does not exhibit potent IC50 values | mean adhesion area percentage ([2]; Example 1, 0.625 mg/ml local, 1 week dosing, p=0.078): 82.9±8.1% | mean adhesion area percentage ([2]; Example 1, 6.25 mg/ml local, 1 week dosing, p<0.001): 67.1±7.1% | mean adhesion area percentage ([2]; Example 1, 62.5 mg/ml local, 1 week dosing, p=0.065): 78.6±9.6% | tenacity of the adhesions formed (analysis of variance on the ranks) ([2]; Example 1, 1 week local dosing, all doses): significant reductions in the tenacity of the adhesions | area of adhesion formation relative to the control ([2]; Example 1, 1 week local dosing, all doses (0.625, 6.25, 62.5 mg/ml)): reduced the area of adhesion formation | Adhesion Area Percentage [2, 4]: 100% (4×) and 60% (3×) | Adhesion Tenacity [2, 4]: 2 (3×) and 1 (3×) and 3 | Adhesion Area Percentage [2, 5]: 70% (2×) and 100% and 80% and 50% (3×) | Adhesion Tenacity [2, 5]: 1 (5×) and 2 (2×) | Adhesion Area Percentage [2, 6]: 100% (3×) and 70% (2×) and 30% and 80% | Adhesion Tenacity [2, 6]: 2 (3×) and 1 (3×) and 3 | mean adhesion area percentage ([2]; Example 2, 0.625 mg/ml local, 2 weeks): 75.1±14.5% | mean adhesion area percentage ([2]; Example 2, 0.625 mg/ml local, 3 weeks): 48.6±8.8% | mean adhesion area percentage ([2]; Example 2, 6.25 mg/ml local, 2 weeks): 78.8±12.0% | mean adhesion area percentage ([2]; Example 2, 6.25 mg/ml local, 3 weeks): 77.1±12.1% | mean adhesion area percentage ([2]; Example 2, 62.5 mg/ml local, 2 weeks): 72.5±9.8% | mean adhesion area percentage ([2]; Example 2, 62.5 mg/ml local, 3 weeks): 64.3±10.9% | tenacity of the adhesions formed (analysis of variance on the ranks) ([2]; Example 2, 2 and 3 week local dosing, all doses): significant reductions in the tenacity of the adhesions | adhesion formation relative to placebo control ([2]; Example 2, 2 and 3 week local dosing, significant at the high dose at two weeks and at all doses at 3 weeks): reductions in adhesion formation at all doses of drug and at both time points | Adhesion Area Percentage ([2]; Example 2, 0.625 mg/ml local via pump for 2 weeks (pump replaced at day 7), sacrifice after 21 days): 50% and 100% (4×) and 80% and 0% | Adhesion Tenacity ([2]; Example 2, 0.625 mg/ml local via pump for 2 weeks, sacrifice after 21 days): 1 (5×) and 0 and 2 | Adhesion Area Percentage ([2]; Example 2, 0.625 mg/ml local via pump for 3 weeks (pump replaced at days 7 and 14), sacrifice after 21 days): 10% and 50% (3×) and 80% and 30% and 70% | Adhesion Tenacity ([2]; Example 2, 0.625 mg/ml local via pump for 3 weeks, sacrifice after 21 days): 1 (6×) and 2 | Adhesion Area Percentage ([2]; Example 2, 6.25 mg/ml local via pump for 2 weeks (pump replaced at day 7), sacrifice after 21 days): 100% (4×) and 70% and 0% and 80% (2×) | Adhesion Tenacity ([2]; Example 2, 6.25 mg/ml local via pump for 2 weeks, sacrifice after 21 days): 1 (6×) and 0 and 2 | Adhesion Area Percentage ([2]; Example 2, 6.25 mg/ml local via pump for 3 weeks (pump replaced at days 7 and 14), sacrifice after 21 days): 70% and 100% (4×) and 20% and 50% | Adhesion Tenacity ([2]; Example 2, 6.25 mg/ml local via pump for 3 weeks, sacrifice after 21 days): 1 (5×) and 2 (2×) | Adhesion Area Percentage ([2]; Example 2, 62.5 mg/ml local via pump for 2 weeks (pump replaced at day 7), sacrifice after 21 days): 40% and 80% and 100% (3×) and 30% and 60% and 70% | Adhesion Tenacity ([2]; Example 2, 62.5 mg/ml local via pump for 2 weeks, sacrifice after 21 days): 1 (6×) and 2 (2×) | Adhesion Area Percentage ([2]; Example 2, 62.5 mg/ml local via pump for 3 weeks (pump replaced at days 7 and 14), sacrifice after 21 days): 50% (2×) and 40% and 30% and 100% (2×) and 80% | Adhesion Tenacity ([2]; Example 2, 62.5 mg/ml local via pump for 3 weeks, sacrifice after 21 days): 1 (6×) and 2 | mean adhesion area percentage ([2]; Example 3, 6.25 mg/ml local only, p=0.039): 72.9±11.7% | tenacity of the adhesions formed (analysis of variance on the ranks) ([2]; Example 3, all groups of animals that received the drug): significant reductions in the tenacity of the adhesions | area of adhesion formation ([2]; Example 3, all groups that received local delivery (Tables 13 and 16)): reductions in the area of adhesion formation | Adhesion Tenacity ([2]; Example 3, 6.25 mg/ml local via pump over 7 days, no oral dosing): 1 | Adhesion Area Percentage ([2]; Example 3, 6.25 mg/ml local via pump, 10 microliter/hour over 7 days, no oral dosing): 100% (2×) and 60% and 80% (3×) and 10% | Adhesion Area Percentage [2, 7]: 80% (2×) and 0% and 50% and 60% and 10% | Adhesion Tenacity [2, 7]: 1 (5×) and 0 | Adhesion Area Percentage ([2]; Example 3, oral 60 mg/kg 5 days pre-operatively and placebo topically (pump)): 100% | Adhesion Tenacity ([2]; Example 3, oral 60 mg/kg 5 days pre-operatively and placebo topically (pump), 60 mg/kg): 2 (4×) and 1 (2×) | Adhesion Area Percentage [2, 8]: 100% | Adhesion Tenacity [2, 8]: 2 | area of adhesion formation / inhibition of adhesion formation ([2]; Example 3, oral dosing alone, pre-operatively or pre- and post-operatively (Tables 14 and 15)): did not reduce the area of adhesion formation; also recorded: no inhibition of adhesion formation | mean adhesion area percentage ([2]; Example 3, oral pre-operative and post-operative, no local): 100±0% | mean adhesion area percentage ([2]; Example 3, oral pre-operative with topical 6.25 mg/ml, p=0.002): 46.7±14.1% | mean adhesion area percentage ([2]; Example 3, oral pre-operative with topical placebo): 100±0% | inhibition of adhesion formation ([2]; Example 3, pre-operative oral administration in conjunction with local administration): did result in inhibition of adhesion formation | efficacy in reducing post-operative adhesions ([2]; delivered to the site via a local administrative route): efficacious | efficacy in reducing post-operative adhesions ([2]; delivered via a systemic route): no efficacy was seen | clinical signs at necropsy ([3]; Example 1, 1 week local dosing): no clinical signs | inflammation or granulomas at the site of administration ([3]; Example 1, 1 week local dosing): no inflammation or granulomas were observed | clinical signs at necropsy [3, 9]: no clinical signs | inflammation or granulomas at the site of administration [3, 9]: no inflammation or granulomas were observed grossly at the site of administration in the majority of animals | mild inflammation with granulomas (mark at adhesion tenacity) ([3]; Example 2, 0.625 mg/ml local for 2 weeks): * | mild inflammation with granulomas (mark at adhesion tenacity) ([3]; Example 2, 6.25 mg/ml local for 2 weeks): * | mild inflammation with granulomas (mark at adhesion tenacity) ([3]; Example 2, 6.25 mg/ml local for 3 weeks): * | mild inflammation with granulomas (mark at adhesion tenacity) ([3]; Example 2, 62.5 mg/ml local for 2 weeks): * | mild inflammation with granulomas (mark at adhesion tenacity) ([3]; Example 2, 62.5 mg/ml local for 3 weeks): * | clinical signs at necropsy [3, 10]: no clinical signs | inflammation or granulomas at the site of administration [3, 10]: no inflammation or granulomas were observed

Reference: patent US9066912B2, “Drug-enhanced adhesion prevention” (Ethicon, Inc., priority 2003, dated 2015)
